Measurements from patent US20250177430A1, “Compositions Comprising NAD+ and Associated Methods of Treatment” (priority 2022, published 2025).

Experiments:
[1] = test system: opiate withdrawal symptoms; assay: Treatment of opiate/heroin withdrawal patients, delivery by SphenoCath to the sphenopalatine foramen; format: in vivo, human
From the text: A device called the SphenoCath has been used to administer medication to the sphenopalatine foramen. The SphenoCath is a curved flexible catheter with a semi-rigid retractable sheath overlaying the catheter attached to a syringe. The SphenoCath is inserted through the nostril, until the tip of the SphenoCath reaches the anterior roof of the nasal cavity. The sheath of the SphenoCath is retracted allowing the curved inner catheter to drop over the anterior aspect of the middle turbinate. With the head correctly positioned medication is reliably dispensed to the area of the membrane covering the sphenopalatine foramen, and then through absorption into the pterygopalatine fossa and the nerves contained therein.
At the eleventh treatment dexamethasone was added to the combination. […] The treatment including dexamethasone was repeated 2 more times.

[2] = test system: dissociative experience and discomfort; assay: Tolerability and dissociative effects in treated patients
From the text: The individual components of the composition can be administered individually.

anxiety and depression = assay: Treatment of anxiety and depression patients, delivery by SphenoCath, subjective and family reports; format: in vivo, human; settings: Patient 2; single IV treatment, about 30 mg
Procedure: Patient continued treatment over the course of a six-month period on an as-needed basis, which ranged from twice a week to every other month.
Inventor and patient decided to begin with the fairly typical six treatment induction phase used by IV ketamine clinics, but deliver it using the SphenoCath to the sphenopalatine foramen.
The fourth treatment was 2 ml of the combination with concentrations of 80 mg/ml NAD+, 12.5 mg/ml ketamine, and 5 mg/ml. […] Several of the treatments included a rotation of the head. For example, the combination was administered to the Patient and the head was rotated 30 degrees to the right for 5 minutes, then 30 degrees to the left for 5 minutes and then neutral for 5 minutes. Other times the head was rotated to the right at 30 degrees for 5 minutes, then 30 degrees to the left for 5 minutes and then neutral for 5 minutes.
Patient 5 completed the GAD 7 and PHQ 9 screening tools before treatment and two weeks after completion of the series. […] Patient returned for “booster” treatments four months later. […] The treatment regime also included 30-degree rotation to the right for 5 minutes, then 30-degree rotation to the left for 5 minutes, finally neutral for 5 minutes.
The first treatment was 1.8 ml of the combination with concentrations of 55 mg/ml NAD+, 14 mg/ml ketamine, 3 mg/ml. […]

migraine and facial pain = settings: through the sphenopalatine foramen into the pterygopalatine fossa; inventor's patients

NC(=O)c1ccc[n+]([C@@H]2O[C@H](COP(=O)([O-])OP(=O)(O)OC[C@H]3O[C@@H](n4cnc5c(N)ncnc54)[C@H](O)[C@@H]3O)[C@@H](O)[C@H]2O)c1 [NAD+]
effect of adding NAD+ on chemical dependency (withdrawal symptoms and cravings) ([1]; added to lidocaine, general observation): significantly enhanced the effect on chemical dependency | patient experience on receiving the component individually ([2]; NAD+ administered individually): less pleasant and can lead to discomfort | effect on dissociative effects of the NMDA receptor antagonist ([2]; NAD+ in composition with lidocaine and ketamine): significantly diminishes the dissociative effects

CNC1(c2ccccc2Cl)CCCCC1=O (centres unmarked) [ketamine]
patient experience with ketamine alone ([2]; IV and intranasal, compared with mixture of NAD+, lidocaine and ketamine): more intense and dissociative experience | patient experience of IV ketamine ([2]; Patient 2, IV at a ketamine clinic, stopped after about 30 mg): very dissociative and unpleasant experience | time until patient felt fine after discontinuation ([2]; Patient 2, single IV treatment, about 30 mg): 30 to 45 min | patient state after ketamine alone ([2]; Patient 4, 15 minutes after intranasal delivery to sphenopalatine foramen, slightly lower dose than in the combined treatment): very agitated and uncomfortable | effect on mood (anxiety and depression): about the same as the intranasal treatments

CCN(CC)CC(=O)Nc1c(C)cccc1C [lidocaine]
opiate withdrawal symptoms ([1]; person, SphenoCath, treated twice 48 hours apart): noticeably improved | need for buprenorphine during withdrawal ([1]; person, buprenorphine was necessary for previous detox episodes): able to go through withdrawal without the use bupenophrine | treatment success in chronic/acute migraine, cluster headache, trigeminal and postherpetic neuralgia, post-concussion headache (migraine and facial pain): successful in most cases
